Experimental data as given in ChEMBL document CHEMBL1145145, “Design and synthesis of o-trifluoromethylbiphenyl substituted 2-amino-nicotinonitriles as inhibitors of farnesyltransferase” (Bioorg Med Chem Lett, 2005).

Key:
[1] = target: Protein farnesyltransferase (Bos taurus, UniProt P29702+P49355); assay: Inhibition of Bovine farnesyl transferase; format: protein-complex assay
[2] = target: T1, Protein farnesyltransferase (Mus musculus, UniProt Q61239+Q8K2I1); assay: Effective concentration against H-ras processing in transformed NIH3T3 cells; format: functional, cell-based
Bos taurus = species: Bos taurus; assay: Selectivity for Bovine farnesyl transferase over geranylgeranyl transferase
[3] = target: Geranylgeranyl transferase type I (Bos taurus, UniProt P29702+Q5EAD5); assay: Inhibition of Bovine geranylgeranyl transferase; format: protein-complex assay
[4] = target: Protein farnesyltransferase (Bos taurus) (UniProt P29702+P49355); assay: Percentage inhibition of Bovine farnesyl transferase at 100 nM; format: protein-complex assay
[5] = target: T1, Protein farnesyltransferase; assay: Inhibition of H-ras processing in transformed NIH3T3 cells
[6] = target: Protein farnesyltransferase (Homo sapiens, UniProt P49354+P49356); assay: Inhibition of Farnesyl transferase inhibitor (ABT-839); format: protein-complex assay
[7] = target: T1, Protein farnesyltransferase; assay: Effective concentration against H-ras processing in NIH 3T3 cells; format: functional, cell-based, NIH3T3

Structure (SMILES) | IC50 [1] [nM] | EC50 [2] [nM] | IC50 [3] [nM] | further results
Cc1ccc(COC(c2ccc(C#N)c(-c3ccccc3C)c2)c2cncn2C)cc1 (stereo not drawn) | 54 | – | – | –
CCCCN(CCC1CCCCC1)Cc1ccc(C(=O)N[C@@H](CCSC)C(=O)O)c(-c2ccccc2C)c1 | – | – | – | Selectivity (Bos taurus): 75000
Cc1ccccc1-c1cc(C(OCc2ccc(Cl)c(Cl)c2)c2cncn2C)ccc1C#N (stereo not drawn) | 27 | – | – | –
Cc1ccccc1-c1cc(C(OCc2ccc3ccccc3c2)c2cncn2C)ccc1C#N (stereo not drawn) | – | – | – | inhibition [4]: 76%
Cc1cccc(COC(c2ccc(C#N)c(-c3ccccc3C)c2)c2cncn2C)c1 (stereo not drawn) | 61 | – | – | –
Cc1ccccc1-c1cc(C(OCc2c(Cl)cccc2Cl)c2cncn2C)ccc1C#N (stereo not drawn) | 81 | – | – | –
COC(=O)c1cccc(COC(c2ccc(C#N)c(-c3ccccc3C)c2)c2cncn2C)c1 (stereo not drawn) | 61 | – | – | –
COc1ccc(COC(c2ccc(C#N)c(-c3ccccc3C)c2)c2cncn2C)cc1 (stereo not drawn) | 59 | – | – | –
Cc1ccccc1-c1cc(C(OCc2cccc(I)c2)c2cncn2C)ccc1C#N (stereo not drawn) | 20 | – | – | –
Cn1cncc1C(OCc1ccc(C#N)cc1)c1ccc(C#N)c(-c2ccccc2C(F)(F)F)c1 (stereo not drawn) | – | 85 | 310 | –
Cn1cncc1C(OCc1ccc(C#N)cc1)c1ccc(C#N)c(-c2cccc3ccccc23)c1 (stereo not drawn) | – | 110 | – | –
Cc1ccccc1-c1cc(C(OCc2cccc3cccnc23)c2cncn2C)ccc1C#N (stereo not drawn) | 59 | – | – | –
Cn1cncc1C(OCc1ccc(C#N)cc1)c1ccc(C#N)c(-c2cc3ccccc3s2)c1 (stereo not drawn) | 160 | – | – | –
Cn1cncc1C(OCc1ccc(C#N)cc1)c1ccc(C#N)c(-c2ccc(Cl)cc2Cl)c1 (stereo not drawn) | 47 | > 1000 | – | –
Cc1ccccc1-c1cc(C(OCc2ccccc2Cl)c2cncn2C)ccc1C#N (stereo not drawn) | 48 | – | – | –
Cc1ccccc1-c1cc(C(OCc2cccc3ccccc23)c2cncn2C)ccc1C#N (stereo not drawn) | 17 | – | – | –
Cc1ccccc1-c1cc(C(OCc2cc(Cl)cc(Cl)c2)c2cncn2C)ccc1C#N (stereo not drawn) | 19 | – | – | –
Cc1ccccc1-c1cc(C(OCc2ccc(S(C)(=O)=O)cc2)c2cncn2C)ccc1C#N (stereo not drawn) | 38 | – | – | –
Cc1ccccc1-c1cc(C(OCc2cnc(Cl)c(Cl)c2)c2cncn2C)ccc1C#N (stereo not drawn) | 15 | – | – | –

Structure (SMILES) | IC50 [1] [nM] | EC50 [2] [nM] | IC50 [3] [nM] | further results
Cc1ccccc1COC(c1ccc(C#N)c(-c2ccccc2C)c1)c1cncn1C (stereo not drawn) | 54 | – | – | –
Cc1ccccc1-c1cc(C(OCc2ccccc2[N+](=O)[O-])c2cncn2C)ccc1C#N (stereo not drawn) | 33 | – | – | –
COC(=O)c1ccc(COC(c2ccc(C#N)c(-c3ccccc3C)c2)c2cncn2C)o1 (stereo not drawn) | – | – | – | inhibition [4]: 50%
Cc1ccccc1-c1cc(C(OCc2ccccc2)c2cncn2C)ccc1C#N (stereo not drawn) | 84 | – | 1300 | EC50 [7]: 2700 nM; Selectivity (Bos taurus): 16
Cc1ccccc1-c1cc(C(OCc2noc(-c3ccccc3)n2)c2cncn2C)ccc1C#N (stereo not drawn) | – | – | – | inhibition [4]: 56%
Cc1ccccc1-c1cc(C(OCc2ccccc2C#N)c2cncn2C)ccc1C#N (stereo not drawn) | 62 | – | – | –
Cc1ccccc1-c1cc(C(OCc2ccc(C(C)C)cc2)c2cncn2C)ccc1C#N (stereo not drawn) | 51 | – | – | –
Cc1ccccc1-c1cc(C(OCc2ccccc2F)c2cncn2C)ccc1C#N (stereo not drawn) | 70 | – | – | –
Cc1ccccc1-c1cc(C(OCc2ccc(C(C)(C)C)cc2)c2cncn2C)ccc1C#N (stereo not drawn) | 87 | – | – | –
Cc1ccccc1-c1cc(C(OCc2ccc(OC(F)(F)F)cc2)c2cncn2C)ccc1C#N (stereo not drawn) | 16 | – | – | –
Cc1ccccc1-c1cc(C(OCc2ccc(-c3ccccc3)cc2)c2cncn2C)ccc1C#N (stereo not drawn) | 13 | – | – | –
Cc1ccccc1-c1cc(C(OCc2ccc(F)cc2)c2cncn2C)ccc1C#N (stereo not drawn) | 32 | – | – | –
Cc1ccccc1-c1cc(C(OCc2ccccc2Br)c2cncn2C)ccc1C#N (stereo not drawn) | – | – | – | inhibition [1]: 65%
Cc1ccccc1-c1cc(C(OCc2cccc(F)c2)c2cncn2C)ccc1C#N (stereo not drawn) | 38 | – | – | –
Cc1ccccc1-c1cc(C(OCc2cccc(Cl)c2)c2cncn2C)ccc1C#N (stereo not drawn) | 19 | – | – | –
Cc1ccccc1-c1cc(C(OCc2cccc(Br)c2)c2cncn2C)ccc1C#N (stereo not drawn) | 13 | – | – | –
Cn1cncc1C(OCc1ccc(C#N)cc1)c1ccc(C#N)c(-c2ccccc2C(=O)O)c1 (stereo not drawn) | 14 | > 1000 | – | –
Cc1ccccc1-c1cc(C(OCc2csc(-c3ccc(Cl)cc3)n2)c2cncn2C)ccc1C#N (stereo not drawn) | 29 | – | – | –

The remaining molecules from weak to strong by IC50 [1], led by results:

IC50 [1] [nM] | EC50 [2] [nM] | IC50 [3] [nM] | Structure (SMILES) | further results
13 | – | – | Cc1ccccc1-c1cc(C(OCc2ccc(I)cc2)c2cncn2C)ccc1C#N (stereo not drawn) | –
13 | – | – | Cc1ccccc1-c1cc(C(OCc2cc(Cl)nc(Cl)c2)c2cncn2C)ccc1C#N (stereo not drawn) | –
12 | – | – | Cc1ccccc1-c1cc(C(OCc2ccc(Br)cc2)c2cncn2C)ccc1C#N (stereo not drawn) | –
12 | – | – | Cc1ccccc1-c1cc(C(OCc2ccc(C(F)(F)F)cc2)c2cncn2C)ccc1C#N (stereo not drawn) | –
11 | – | – | Cc1ccccc1-c1cc(C(OCc2ccc(Cl)cc2)c2cncn2C)ccc1C#N (stereo not drawn) | –
10 | – | 750 | Cn1cncc1C(OCc1ccc(C#N)c(NCc2cccc(F)c2)n1)c1ccc(C#N)c(-c2ccccc2C(F)(F)F)c1 (stereo not drawn) | –
9.1 | > 1000 | 2300 | Cn1cncc1C(OCc1ccc(C#N)c(NCCc2ccccc2)n1)c1ccc(C#N)c(-c2ccccc2C(F)(F)F)c1 (stereo not drawn) | –
9 | – | 3900 | COC(=O)c1ccc(COC(c2ccc(C#N)c(-c3ccccc3C(F)(F)F)c2)c2cncn2C)nc1 (stereo not drawn) | inhibition [5]: 83%
8.3 | – | – | Cc1ccccc1-c1cc(C(OCc2cccc(OC(F)(F)F)c2)c2cncn2C)ccc1C#N (stereo not drawn) | –
8.1 | – | – | Cc1ccccc1-c1cc(C(OCc2cccc(C(F)(F)F)c2)c2cncn2C)ccc1C#N (stereo not drawn) | –
7.7 | 201 | 2200 | Cn1cncc1C(OCc1ccc(C#N)c(NCC2CCOC2)n1)c1ccc(C#N)c(-c2ccccc2C(F)(F)F)c1 (stereo not drawn) | –
7.5 | – | – | Cc1ccccc1-c1cc(C(OCc2ccc([N+](=O)[O-])cc2)c2cncn2C)ccc1C#N (stereo not drawn) | –
7.5 | 285 | 2400 | Cn1cncc1C(OCc1ccc(C#N)c(NCC2CCCO2)n1)c1ccc(C#N)c(-c2ccccc2C(F)(F)F)c1 (stereo not drawn) | IC50 [6]: 1.1 nM
6.1 | > 1000 | 160 | Cn1cncc1C(OCc1ccc(C(F)(F)F)c(F)c1)c1ccc(C#N)c(-c2ccccc2C(F)(F)F)c1 (stereo not drawn) | –
6.1 | – | – | COC(=O)c1ccc(COC(c2ccc(C#N)c(-c3ccccc3C)c2)c2cncn2C)cc1 (stereo not drawn) | –
5.5 | – | 480 | Cn1cncc1C(OCc1ccc(C#N)cc1)c1ccc(C#N)c(-c2ccccc2CO)c1 (stereo not drawn) | inhibition [5]: 89%
4.8 | 420 | 180 | Cc1ccccc1-c1cc(C(OCc2ccc(C#N)cc2)c2cncn2C)ccc1C#N (stereo in doubt; 10a) | –

IC50 [1] [nM] | EC50 [2] [nM] | IC50 [3] [nM] | Structure (SMILES) | further results
4.1 | 100 | 120 | Cn1cncc1C(OCc1ccc(F)c(C(F)(F)F)c1)c1ccc(C#N)c(-c2ccccc2C(F)(F)F)c1 (stereo not drawn) | –
4 | – | – | Cc1ccccc1-c1cc(C(OCc2ccc(C#N)cc2)c2cncn2C)ccc1C#N (stereo in doubt; 4q) | –
3.6 | 210 | 680 | Cn1cncc1C(OCc1ccc(C#N)c(N2CCC[C@@H]2C(=O)O)n1)c1ccc(C#N)c(-c2ccccc2C(F)(F)F)c1 (stereo partly drawn) | –
3.5 | 120 | 970 | Cn1cncc1C(OCc1ccc(C#N)c(N2CCC(O)C2)n1)c1ccc(C#N)c(-c2ccccc2C(F)(F)F)c1 (stereo not drawn) | –
2.7 | 90 | 1500 | Cn1cncc1C(OCc1ccc(C#N)cn1)c1ccc(C#N)c(-c2ccccc2C(F)(F)F)c1 (stereo not drawn) | –
2.6 | 130 | 1800 | CC(=O)N1CCN(c2nc(COC(c3ccc(C#N)c(-c4ccccc4C(F)(F)F)c3)c3cncn3C)ccc2C#N)CC1 (stereo not drawn) | –
2.1 | > 1000 | 130 | Cc1cccc(-c2cc(C(OCc3ccc(C#N)cc3)c3cncn3C)ccc2C#N)c1C (stereo not drawn) | –
2 | 170 | 920 | Cn1cncc1C(OCc1ccc(C#N)c(N2CCC[C@@H]2CO)n1)c1ccc(C#N)c(-c2ccccc2C(F)(F)F)c1 (stereo partly drawn) | –
1.9 | 110 | – | Cn1cncc1C(OCc1ccc(C#N)cc1)c1ccc(C#N)c(-c2ccccc2C=O)c1 (stereo not drawn) | –
1.8 | 11 | 1400 | Cn1cncc1C(OCc1ccc(C#N)c(N2CCC(CO)CC2)n1)c1ccc(C#N)c(-c2ccccc2C(F)(F)F)c1 (stereo not drawn) | –
1.7 | – | 72 | Cn1cncc1C(OCc1ccc(Cl)c(Cl)c1)c1ccc(C#N)c(-c2ccccc2C(F)(F)F)c1 (stereo not drawn) | –
1.7 | 330 | 1600 | CC(=O)NC1CCN(c2nc(COC(c3ccc(C#N)c(-c4ccccc4C(F)(F)F)c3)c3cncn3C)ccc2C#N)C1 (stereo not drawn) | –
1.5 | 240 | 85 | Cn1cncc1C(OCc1ccc(C#N)cc1)c1ccc(C#N)c(-c2cccc(Cl)c2Cl)c1 (stereo not drawn) | –
1.3 | 89 | 1200 | Cn1cncc1C(OCc1ccc(C#N)c(N2CCOCC2)n1)c1ccc(C#N)c(-c2ccccc2C(F)(F)F)c1 (stereo not drawn) | –
1.3 | 30 | 2000 | Cn1cncc1C(OCc1ccc(C#N)c(N2CCN(CCO)CC2)n1)c1ccc(C#N)c(-c2ccccc2C(F)(F)F)c1 (stereo not drawn) | –
1.3 | 13 | 1400 | Cn1cncc1C(OCc1ccc(C#N)c(N2CCCC(O)C2)n1)c1ccc(C#N)c(-c2ccccc2C(F)(F)F)c1 (stereo not drawn) | –
1.2 | 53 | 2600 | CN1CCN(c2nc(COC(c3ccc(C#N)c(-c4ccccc4C(F)(F)F)c3)c3cncn3C)ccc2C#N)CC1 (stereo not drawn) | –
